Results from patent US10688153B2, “Peptides and method for treatment of cardiac arrest” (THE BOARD OF TRUSTEES OF THE UNIVERSITY OF ILLINOIS, priority 2015, dated 2020).
Ends that are not written are not given here.

Experiments:
mouse model of SCA [1] = assay: Blood sorbitol and taurine concentrations in mouse model of SCA; type: in vivo
Description: Metabolism alteration and energy production are critical outcomes following SCA. Using a mouse model of SCA (Li, et al. (2015) Am. J. Physiol. Heart Circ. Physiol. 308:H1414-22), several metabolic compounds were identified as diagnostic markers for use in guiding the selection of treatment protocols (e.g., active cooling, therapeutic hypothermia, or modified PDZ binding domain peptide therapies).

PTEN = PTEN (Homo sapiens, UniProt P60484); conditions: cited from earlier work
cell death = conditions: Zhu et al. 2014, cited from earlier work
mouse model of SCA [2] = conditions: Li et al. 2015; cited from earlier work
C57BL6 mice [3] = assay: Potassium-induced SCA protocol, nicotinamide during CPR plus TAT-PTEN9c after ROSC (Example 3); type: in vivo, mouse; conditions: about 12 minute down time
Description: The benefit of co-administration of nicotinamide (NAM) with TAT-PTEN9c was evaluated. C57BL6 mice were subjected to an established potassium-induced 8-minute SCA protocol. Nicotinamide (Vitamin B3) was administered during CPR and TAT-PTEN9c was administered after ROSC with about a 12 minute down time for each group.

C57BL6 mice [4] = assay: Potassium-induced 8-minute SCA protocol, timing of administration during CPR or after ROSC (Example 2); type: in vivo, mouse; conditions: for MAP: 7.5 mg/kg IV administered after ROSC
Description: To determine timing of modified peptide administration, TAT-PTEN9c was administrated during CPR or after ROSC. C57BL6 mice were subjected to an established potassium-induced 8-minute SCA protocol (Li, et al. (2015) Am. J. Physiol. Heart Circ. Physiol. 308:H1414-22). Mean arterial blood pressure (MAP) was recorded until 4 hours after successful CPR. TAT-PTEN9c (7.5 mg/kg) or saline (NS) was given intravenously (IV) during CPR and immediately after ROSC.

[5] = tested on: Akt phosphorylation in mouse cardiomyocytes; assay: Western blot of Akt phosphorylation in mouse cardiomyocytes exposed to H2O2 or IGF-1; type: cell-based
Description: (§1) Mouse cardiomyocytes were isolated from 1-3 day old mouse pups according to known methods (Zhu, et al. (2014) PLoS One 9:e95622). Western blot analysis was used to determine the efficacy of a representative peptide of the invention (TAT-PTEN9c) for enhancing Akt phosphorylation in mouse cardiomyocytes exposed to oxidant (H2O2) or IGF-1. C57BL6 mice were subjected to an established potassium-induced 8-minute SCA protocol (Li, et al. (2015) Am. J. Physiol. Heart Circ. Physiol. 308:H1414-22). Mean arterial blood pressure (MAP), end-tidal CO2 (EtCO2), body temperature and electrocardiogram (ECG) were recorded until […] after successful cardiopulmonary resuscitation (CPR). TAT-PTEN9c (7.5 mg/kg) or saline was given intravenously (IV) immediately after ROSC. A mouse survival curve was generated by Kaplan-Meyer analysis. IV administration of TAT-GFP was used to measure the kinetics of heart and brain tissue TAT protein delivery.

C57BL6 mice [6] = assay: Potassium-induced 8-minute SCA protocol, peptide IV immediately after ROSC (Example 1); type: in vivo, mouse
Description: as §1

[7] = 240 minutes, 7.5 mg/kg IV immediately after ROSC

PTEN, sequence (P60484 whole entry, species assumed): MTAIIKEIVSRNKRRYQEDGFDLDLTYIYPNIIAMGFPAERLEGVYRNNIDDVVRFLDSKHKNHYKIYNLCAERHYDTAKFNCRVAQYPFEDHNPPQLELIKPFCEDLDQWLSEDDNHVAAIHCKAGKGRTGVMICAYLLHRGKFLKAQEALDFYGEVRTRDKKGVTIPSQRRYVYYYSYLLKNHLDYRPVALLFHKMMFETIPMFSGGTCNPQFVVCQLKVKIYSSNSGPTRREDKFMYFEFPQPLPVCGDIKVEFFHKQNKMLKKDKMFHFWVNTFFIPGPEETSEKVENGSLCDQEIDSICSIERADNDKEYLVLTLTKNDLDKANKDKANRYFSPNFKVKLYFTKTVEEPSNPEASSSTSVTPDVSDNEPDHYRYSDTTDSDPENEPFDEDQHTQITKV

For O=C(O)c1ncccc1O.O=C(O)c1ncccc1O.[O]=[V][O-] [VO-OHpic], the blood sorbitol concentration (mouse model of SCA [1]) is listed as “reduced”, the blood taurine concentration (mouse model of SCA [1]) is listed as “reduced” and the “inhibition of PTEN” value (PTEN) is listed as “potent inhibition”. For the same compound, the “reduction in cell death” value (cell death; I/R injury) was “almost four-fold reduction”, the “phosphorylated Akt” value (cell death) was “significant increase” and the recovery and survival (mouse model of SCA [2]) was “improved recovery and survival”.

For NC(=O)c1cccnc1 [nicotinamide], the “survival time of all mice” value (C57BL6 mice [3]) was “less than 1 hours”.

With “YGRKKRRQRRRDQHSQITKV (not fully specified (C-terminus)) [TAT-PTEN9c, 20-residue peptide: Tat transduction domain plus C-terminal 9 residues of mouse PTEN]” the resuscitation rate (C57BL6 mice [4]; 7.5 mg/kg IV administered during CPR) was “no improvement”, the MAP (C57BL6 mice [4]; 30 minutes after ROSC) was 65.2±1.1 mmHg and the MAP (C57BL6 mice [4]; 4 hours after ROSC, p<0.05 vs NS) was 49.9±0.7 mmHg. For the same compound, the “time to Akt activation after administration” value ([5]; FIG. 1C) was ≤ 10 min, the “Akt activation in response to H2O2” value ([5]; H2O2, concentration-dependent, FIG. 1A) was “enhances Akt activation” and the “Akt activation in response to IGF-1” value ([5]; IGF-1, concentration-dependent, FIG. 1B) was “enhances Akt activation”. The “brain tissue sorbitol content” value (C57BL6 mice [6]; 15 (R15) and 30 (R30) minutes after ROSC, vs saline control (NS), FIG. 3) was “significantly decreased”, the EtCO2 (C57BL6 mice [6]; [7]) was 36.2 ± 6.7 mmHg and the “Heart Rate” value (C57BL6 mice [6]; [7]) was 502.0 ± 62.2 bpm. For the same compound, the MAP (C57BL6 mice [6]; [7]) was 52.7 ± 9.3 mmHg, the “Survival (%)” value (C57BL6 mice [6]; [7]) was 66.7% and the “survival of mice after cardiac arrest” value (C57BL6 mice [6]; administered immediately after ROSC, vs saline control, FIG. 4) was “significantly improves survival”.
